Counter-ions that a name gives are not always drawn.

This assay deals with T1, untagged HECT of NEDD4 wild-type (WT) (E3 ligase) (Homo sapiens, UniProt P46934).
T1 construct: untagged HECT of NEDD4 wild-type (WT) (E3 ligase); made in house
T1 sequence (P46934 519-900 isoform P46934-4 limits assumed): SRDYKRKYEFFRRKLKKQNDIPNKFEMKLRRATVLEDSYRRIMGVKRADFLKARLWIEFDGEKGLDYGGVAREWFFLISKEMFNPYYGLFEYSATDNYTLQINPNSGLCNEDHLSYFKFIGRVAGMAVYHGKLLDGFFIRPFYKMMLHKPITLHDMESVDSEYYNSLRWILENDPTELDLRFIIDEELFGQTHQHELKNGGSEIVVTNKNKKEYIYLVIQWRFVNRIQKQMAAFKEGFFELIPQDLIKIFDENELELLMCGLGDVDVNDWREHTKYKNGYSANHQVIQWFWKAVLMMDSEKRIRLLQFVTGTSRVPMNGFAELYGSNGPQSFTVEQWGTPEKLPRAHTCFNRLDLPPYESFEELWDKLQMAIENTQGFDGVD
As to the kind of experiment: In vitro ubiquitination assay TR-FRET based (self-ubiquitination of NEDD4). It is filed as biochemical. Particulars: at 11 μM; pre-incubated for 1 hour; AUC of 120 minutes kinetic; read-out: percentages of inhibition (NEDD4). In short, it runs like this: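 Mix of E1, His-UBE2D3 and untagged NEDD4 HECT (final 30, 350, 50 nM) with Eu-cryptate/Cy5/unlabelled ubiquitin in pH 7.6 Tris buffer, compounds (100–0.005 μM dilution series) pre-incubated 1 h, then started with ATP. 665/620 nm TR-FRET followed 120 min; % inhibition from AUC versus DMSO, no-ATP background.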
(Time-resolved FRET reads energy transfer from a long-lived donor to a nearby acceptor.)
The inhibition is the change of the read-out against control, counted positive when it falls. For `C#CCOc1ccc2c(c1)CCc1ccc(Cl)cc1N2CCCCNC/C=C/C(=O)OCC` [Compound 100, Ethyl (E)-4-[4-(7-Chloro-2-prop-2-ynyloxy-10,11-dihydro-dibenzo[b,f]azepin-5-yl)-butylamino]-but-2-enoate maleate], the inhibition at 11 µM was more than 50%.
To `CN(C/C=C/C(N)=O)CCCCN1c2ccccc2CCc2ccc(Cl)cc21` [Compound 72, (E)-4-[4-(3-Chloro-10,11-dihydro-5H-dibenzo[b,f]azepin-5-yl)butyl-methyl-amino]but-2-enamide] belongs more than 50%.
As for `CCOC(=O)/C=C/CNCCCCN1c2ccc(OCCOC)cc2CCc2ccc(Cl)cc21` [Compound 97, Ethyl (E)-4-{4-[7-Chloro-2-(2-methoxy-ethoxy)-10,11-dihydro-5H-dibenzo[b,f]azepin-5-yl]-butylamino}-but-2-enoate maleate], the inhibition at 11 µM was more than 50%.
Take `CC(=O)/C=C/CN(C)CCCCN1c2ccccc2CCc2ccc(Cl)cc21` [Compound 10, (E)-5-[4-(3-chloro-10,11-dihydro-5H-dibenzo[b,f]azepin-5-yl)butyl-methyl-amino]pent-3-en-2-one maleate]: the inhibition at 11 µM was more than 50%.
In the case of `CCOC(=O)/C=C/CNCCCCN1c2cc(Cl)ccc2C(=O)N(CCOCCOCCOC)c2ccccc21` [Compound 87, Ethyl (E)-4-{[4-(3-chloro-10-[2-[2-(2-methoxyethoxy)ethoxy]ethyl]-11-oxo-10,11-dihydro-5H-dibenzo[b,e][1,4]diazepin-5-yl)butyl]amino}but-2-enoate maleate] it was more than 50%.
To `CCOC(=O)/C=C/CNCCCN1c2cc(Cl)ccc2C(=O)N(CCCO)c2ccccc21` [Compound 49, Ethyl (E)-4-({3-[3-chloro-10-(3-hydroxypropyl)-11-oxo-10,11-dihydro-5H-dibenzo[b,e][1,4]diazepin-5-yl]propyl}amino)but-2-enoate maleate] belongs more than 50%.
As to `N#C/C=C/CNCCCCN1c2ccccc2CCc2ccc(Cl)cc21` [Compound 71, (E)-4-[4-(3-chloro-10,11-dihydro-5H-dibenzo[b,f]azepin-5-yl)butylamino]but-2-enenitrile maleate], the inhibition at 11 µM was more than 50%.
For `CCOC(=O)/C=C/CNCCCN1c2ccccc2C(=O)N(CCO)c2ccc(Cl)cc21` [Compound 55, Ethyl (E)-4-({3-[7-chloro-10-(2-hydroxyethyl)-11-oxo-10,11-dihydro-5H-dibenzo[b,e][1,4]diazepin-5-yl]propyl}amino)but-2-enoate maleate], the inhibition at 11 µM is less than 30%.
With `CCOC(=O)/C=C/CNCCCCN1c2ccc(O)cc2CCc2ccc(Cl)cc21` [Compound 39, Ethyl (E)-4-[4-(7-Chloro-2-hydroxy-10,11-dihydro-dibenzo[b,f]azepin-5-yl)-butylamino]-but-2-enoate maleate], the inhibition at 11 µM was more than 50%.
To `CCOC(=O)/C=C/CNCCCCN1c2ccccc2C(=O)N(CCCO)c2ccc(Cl)cc21` [Compound 51, Ethyl (E)-4-({4-[7-chloro-10-(3-hydroxypropyl)-11-oxo-10,11-dihydro-5H-dibenzo[b,e][1,4]diazepin-5-yl]butyl}amino)but-2-enoate maleate] belongs more than 50%.
To `CCC(=O)/C=C/CN(C)CCCCN1c2ccccc2CCc2ccc(Cl)cc21` [Compound 54, (E)-6-[4-(3-chloro-10,11-dihydro-5H-dibenzo[b,f]azepin-5-yl)butyl-methyl-amino]hex-4-en-3-one maleate] belongs more than 50%.
In the case of `C#CCOCCOC(=O)/C=C/CNCCCCN1c2ccccc2CCc2ccc(Cl)cc21` [Compound 92, 2-Prop-2-ynyloxy-ethyl (E)-4-[4-(3-chloro-10,11-dihydro-5H-dibenzo[b,f]azepin-5-yl)butylamino]but-2-enoate maleate] it was more than 50%.
As to `COC(=O)/C=C/CN(C)CCCN1c2ccccc2CCc2ccc(Cl)cc21` [Compound 1, Methyl (E)-4-[3-(3-chloro-10,11-dihydro-5H-dibenzo[b,f]azepin-5-yl)propyl-methyl-amino]but-2-enoate hydrochloride], the inhibition at 11 µM fell in the range of 30 to 50%.
Turning to `CCOC(=O)/C=C/CNCCCCN1c2ccc(OCCOCCOC)cc2CCc2ccc(Cl)cc21` [Compound 98, Ethyl (E)-4-(4-{7-chloro-2-[2-(2-methoxy-ethoxy)-ethoxy]-10,11-dihydro-5H-dibenzo[b,f]azepin-5-yl}-butylamino)-but-2-enoate maleate], the inhibition at 11 µM is more than 50%.
In the case of `NC(=O)/C=C/CNCCCN1c2ccccc2CCc2ccc(Cl)cc21` [Compound 18, (E)-4-{[3-(3-chloro-10,11-dihydro-5H-dibenzo[b,f]azepin-5-yl)propyl]amino}but-2-enamide hydrochloride] it was less than 30%; in that of `CCOC(=O)/C=C/CNCCCCN1c2ccc(COCCOC)cc2CCc2ccc(Cl)cc21` [Compound 76, Ethyl (E)-4-[4-(7-chloro-2-methoxyethoxymethyl-10,11-dihydro-dibenzo[b,f]azepin-5-yl)-butylamino]-but-2-enoate maleate], more than 50%.
In the case of `CCOC(=O)/C=C/CNCCCN1c2ccccc2C(=O)N(CCCO)c2ccc(Cl)cc21` [Compound 52, Ethyl (E)-4-({3-[7-chloro-10-(3-hydroxypropyl)-11-oxo-10,11-dihydro-5H-dibenzo[b,e][1,4]diazepin-5-yl]propyl}amino)but-2-enoate maleate] it was 30 to 50%; in that of `CCOC(=O)/C=C/CNCCCN1c2cc(Cl)ccc2CCc2cncnc21` [Compound 32, Ethyl (E)-4-{[3-(9-chloro-5,6-dihydro-11H-pyrimido[4,5-b][1]-benzazepin-11-yl)propyl]amino}but-2-enoate fumarate], more than 50%; in that of `CON(C)C(=O)/C=C/CN(C)CCCCN1c2cc(Cl)ccc2COc2ccccc21` [Compound 69, (E)-4-[4-(3-Chlorodibenzo[b,e][1,4]oxazepin-5(11H)-yl)butyl-methyl-amino]-N-methoxy-N-methyl-but-2-enamide], more than 50%.
As for `CCOC(=O)/C=C/CNCCCN1c2ccccc2CCc2ccccc21` [Compound 11, Ethyl (E)-4-[3-(10,11-dihydro-5H-dibenzo[b,f]azepin-5-yl)propylamino]but-2-enoate fumarate], the inhibition at 11 µM lay within 30 to 50%.
As for `CCOC(=O)/C=C/CNCCCCN1c2cc(Cl)ccc2NC(=O)c2ccccc21` [Compound 41, Ethyl (E)-4-{[4-(7-chloro-11-oxo-10,11-dihydro-5H-dibenzo[b,e][1,4]diazepin-5-yl)butyl]amino}but-2-enoate maleate], the inhibition at 11 µM is more than 50%.
Take `CCOC(=O)/C=C/CNCCCN1c2ccccc2NC(=O)c2ccc(C(F)(F)F)cc21` [Compound 25, Ethyl (E)-4-{[3-(11-oxo-3-(trifluoromethyl)-10,11-dihydro-5H-dibenzo[b,e][1,4]diazepin-5-yl)propyl]amino}but-2-enoate maleate]: the inhibition at 11 µM is less than 30%.
Consider `CCOC(=O)/C=C/CNCCCCN1c2cc(Cl)ccc2C(=O)N(CCCO)c2ccccc21` [Compound 48, Ethyl (E)-4-({4-[3-chloro-10-(3-hydroxypropyl)-11-oxo-10,11-dihydro-5H-dibenzo[b,e][1,4]diazepin-5-yl]butyl}amino)but-2-enoate maleate], for which the inhibition at 11 µM was more than 50%.
To `CON(C)C(=O)/C=C/CN(C)CCCN1c2ccccc2CCc2ccc(Cl)cc21` [Compound 6, (E)-4-[3-(3-Chloro-10,11-dihydro-5H-dibenzo[b,f]azepin-5-yl)propyl-methyl-amino]-N-methoxy-N-methyl-but-2-enamide] belongs more than 50%; to `CN(C)C(=O)/C=C/CNCCCN1c2ccccc2CCc2ccc(Cl)cc21` [Compound 20, (E)-4-{[3-(3-chloro-10,11-dihydro-5H-dibenzo[b,f]azepin-5-yl)propyl]amino}-N,N-dimethyl-but-2-enamide hydrochloride], less than 30%.
For `CNC(=O)/C=C/CNCCCN1c2ccccc2CCc2ccc(Cl)cc21` [Compound 19, (E)-4-{[3-(3-chloro-10,11-dihydro-5H-dibenzo[b,f]azepin-5-yl)propyl]amino}-N-methyl-but-2-enamide hydrochloride], the inhibition at 11 µM was less than 30%.
Take `CCOC(=O)/C=C/CNCCCN1c2cc(Cl)ccc2NC(=O)c2ccccc21` [Compound 26, Ethyl (E)-4-{[3-(7-chloro-11-oxo-10,11-dihydro-5H-dibenzo[b,e][1,4]diazepin-5-yl)propyl]amino}but-2-enoate maleate]: the inhibition at 11 µM was more than 50%.
To `O=C(/C=C/CNCCCCN1c2ccccc2CCc2ccc(Cl)cc21)NOc1ccccc1` [Compound 82, (E)-4-[4-(3-chloro-10,11-dihydro-5H-dibenzo[b,f]azepin-5-yl)butylamino]-N-phenoxy-but-2-enamide maleate] belongs more than 50%.
In the case of `CCOC(=O)/C=C/CNCCCCN1c2cc(Cl)ccc2C(=O)N(CCO)c2ccccc21` [Compound 46, Ethyl (E)-4-({4-[3-chloro-10-(2-hydroxyethyl)-11-oxo-10,11-dihydro-5H-dibenzo[b,e][1,4]diazepin-5-yl]butyl}amino)but-2-enoate maleate] it was more than 50%.

(Values after patent US12403144B2, “HECT E3 ligase inhibitors and uses thereof” (IFOM FONDAZIONE ISTITUTO FIRC DI ONCOLOGIA MOLECOLARE, priority 2019, dated 2025).)
